Like-named read-outs stand apart in the source and are kept apart here.
Key:
[1] = system: TMHT (Thy-1 Mutated Human Tau) mouse; experiment: In-vivo efficacy, Morris Water Maze in tau transgenic mice; conditions: 30 mg/kg orally for 8 weeks
Excerpt: Various compounds of different classes (among them also antibody treatments) were positively tested for their efficacy in the TMHT model. Published examples are the γ-secretase modulator CHF5074 (Lanzilotta A, et al. The γ-secretase modulator CHF5074 reduces the accumulation of native hyperphosphoxylated tau in a transgenic mouse model of Alzheimer's disease. J Mol Neurosci. 45(1):22--33 (2010)), sodium selenate (Corcoran N M et al. Sodium selenate specifically activates PP2A phosphatase, dephosphorylates tau and reverses memory deficits in an Alzheimer's disease model. J Clin Neurosci. 17(8):1025-33 (2010)) and grape-seed polyphenol extract (Wang J et al. Grape derived polyphenols attenuate tau neuropathology in a mouse model of Alzheimer's disease. […] The effects of the compounds on learning in the Morris Mater Maze (MWM) were evaluated. Blood (plasma) and brain samples were collected after sacrification. Samples collected at sacrifice were plasma, left cortex, left hippocampus, right cortex, right hippocampus, remainder of left brain hemisphere, remainder of right brain hemisphere. In total 48 animals were used and allocated to 4 treatment groups. The start position of the mouse and the position of the platform (FIG. 1) in the different trials of the MWM were as indicated in Table 9: […] A descriptive statistical analysis was performed on all evaluated parameters. All data were represented as mean ±standard error of mean (SEM). MWM learning curve data of three trials per day were averaged. Over a period of 4 days, the ability to find a hidden platform using visual cues was measured performing 3 trials a day. By comparison of the learning curves, the cognitive abilities of the different treatment groups and possible drug effects were evaluated.

CK1a1 = CK1a1 (Homo sapiens, UniProt P48729); experiment: Kinase selectivity, % remaining activity; format: biochemical; conditions: 10 μM compound, 10 μM ATP, duplicate
Sequence of CK1a1 (P48729 whole entry): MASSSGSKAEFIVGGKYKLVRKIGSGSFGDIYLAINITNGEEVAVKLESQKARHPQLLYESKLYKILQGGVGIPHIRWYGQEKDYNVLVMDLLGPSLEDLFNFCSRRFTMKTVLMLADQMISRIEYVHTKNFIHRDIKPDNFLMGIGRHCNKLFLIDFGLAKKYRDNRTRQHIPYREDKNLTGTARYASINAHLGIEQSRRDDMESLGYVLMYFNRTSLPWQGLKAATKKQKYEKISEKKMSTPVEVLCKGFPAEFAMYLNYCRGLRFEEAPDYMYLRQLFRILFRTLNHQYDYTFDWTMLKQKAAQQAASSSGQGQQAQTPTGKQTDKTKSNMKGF
Experimental: (§1) Compounds were tested in single dose duplicate mode at a concentration of 10 μM (in DMSO) and reactions were carried out at 10 μM ATP, Table 3 reports the % of remaining activity (relative to DMSO).

CK1e = CK1e (Homo sapiens, UniProt P49674); experiment: Kinase selectivity, % remaining activity; format: biochemical; conditions: 10 μM compound, 10 μM ATP, duplicate; for remaining activity at 10 µM: read-out: % of remaining activity (relative to DMSO)
Sequence of CK1e (P49674 whole entry): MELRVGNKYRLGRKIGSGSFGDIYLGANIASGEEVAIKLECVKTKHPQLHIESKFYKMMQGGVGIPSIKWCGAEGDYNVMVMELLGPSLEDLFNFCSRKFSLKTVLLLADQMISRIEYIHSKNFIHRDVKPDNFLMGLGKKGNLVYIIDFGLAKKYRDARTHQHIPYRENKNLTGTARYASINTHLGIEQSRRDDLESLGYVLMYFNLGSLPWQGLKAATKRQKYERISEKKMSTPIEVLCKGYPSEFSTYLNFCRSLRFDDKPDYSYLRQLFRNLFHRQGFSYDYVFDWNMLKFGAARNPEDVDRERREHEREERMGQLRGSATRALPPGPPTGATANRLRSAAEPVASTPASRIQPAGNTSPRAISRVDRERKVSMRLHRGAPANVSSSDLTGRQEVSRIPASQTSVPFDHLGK
Experimental: (§2) A two-tier strategy to determine the selectivity of compound A was applied: first, the compound was tested at a single concentration (in duplicate) to determine the %-remaining activity of the target kinase. Subsequently, the IC50 of compound A and comparative compounds for casein kinase 1 delta were determined.
as §1

CK1g1 = CK1g1 (Homo sapiens, UniProt Q9HCP0); experiment: Kinase selectivity, % remaining activity; format: biochemical; conditions: 10 μM compound, 10 μM ATP, duplicate; for remaining activity at 10 µM: read-out: % of remaining activity (relative to DMSO)
Sequence of CK1g1 (Q9HCP0 whole entry): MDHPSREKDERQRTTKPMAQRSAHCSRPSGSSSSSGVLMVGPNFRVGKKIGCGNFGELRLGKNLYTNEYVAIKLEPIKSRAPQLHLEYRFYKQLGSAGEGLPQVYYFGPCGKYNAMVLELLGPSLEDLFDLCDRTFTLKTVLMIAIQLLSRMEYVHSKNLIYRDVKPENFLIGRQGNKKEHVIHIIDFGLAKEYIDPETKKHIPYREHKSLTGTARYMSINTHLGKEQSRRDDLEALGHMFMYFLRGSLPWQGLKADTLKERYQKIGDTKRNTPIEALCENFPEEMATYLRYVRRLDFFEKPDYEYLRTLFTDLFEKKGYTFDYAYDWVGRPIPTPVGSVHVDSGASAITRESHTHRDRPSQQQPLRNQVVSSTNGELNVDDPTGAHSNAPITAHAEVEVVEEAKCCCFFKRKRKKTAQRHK
Experimental: as §2, §1

CK1g3 = CK1g3 (Homo sapiens, UniProt Q9Y6M4); experiment: Kinase selectivity, % remaining activity; format: biochemical; conditions: 10 μM compound, 10 μM ATP, duplicate; for remaining activity at 10 µM: read-out: % of remaining activity (relative to DMSO)
Experimental: as §2, §1

EPHA2 = EPHA2 (Homo sapiens, UniProt P29317); experiment: Kinase selectivity, % remaining activity; format: biochemical; conditions: 10 μM compound, 10 μM ATP, duplicate; for remaining activity at 10 µM: read-out: % of remaining activity (relative to DMSO)
Sequence of EPHA2 (P29317 24-976): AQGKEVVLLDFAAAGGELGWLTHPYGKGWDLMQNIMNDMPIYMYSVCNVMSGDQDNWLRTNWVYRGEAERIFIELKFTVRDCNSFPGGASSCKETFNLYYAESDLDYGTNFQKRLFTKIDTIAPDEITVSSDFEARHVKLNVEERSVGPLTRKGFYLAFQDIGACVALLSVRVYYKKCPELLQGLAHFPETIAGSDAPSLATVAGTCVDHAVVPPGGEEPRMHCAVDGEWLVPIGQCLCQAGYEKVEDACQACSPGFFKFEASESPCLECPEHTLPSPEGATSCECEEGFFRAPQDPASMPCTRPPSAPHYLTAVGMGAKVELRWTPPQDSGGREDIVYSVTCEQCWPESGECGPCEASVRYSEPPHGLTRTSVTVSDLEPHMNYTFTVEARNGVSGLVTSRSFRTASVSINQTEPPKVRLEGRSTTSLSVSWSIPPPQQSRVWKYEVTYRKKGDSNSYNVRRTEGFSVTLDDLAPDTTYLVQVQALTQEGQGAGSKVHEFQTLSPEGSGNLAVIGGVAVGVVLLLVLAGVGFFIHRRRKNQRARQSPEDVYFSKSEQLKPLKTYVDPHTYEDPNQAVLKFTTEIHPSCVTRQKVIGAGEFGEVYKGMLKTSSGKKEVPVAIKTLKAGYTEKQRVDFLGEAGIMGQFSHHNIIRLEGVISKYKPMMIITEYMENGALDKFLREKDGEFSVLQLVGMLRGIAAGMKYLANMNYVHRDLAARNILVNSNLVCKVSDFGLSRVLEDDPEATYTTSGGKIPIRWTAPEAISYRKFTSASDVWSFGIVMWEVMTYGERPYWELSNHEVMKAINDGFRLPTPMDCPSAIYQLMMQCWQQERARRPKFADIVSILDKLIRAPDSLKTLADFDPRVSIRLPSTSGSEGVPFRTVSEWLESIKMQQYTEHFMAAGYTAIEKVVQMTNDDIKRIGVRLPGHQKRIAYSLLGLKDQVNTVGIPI
Experimental: as §2, §1

FGFR1 = FGFR1 (Homo sapiens, UniProt P11362); experiment: Kinase selectivity, % remaining activity; format: biochemical; conditions: 10 μM compound, 10 μM ATP, duplicate; for remaining activity at 10 µM: read-out: % of remaining activity (relative to DMSO)
Sequence of FGFR1 (P11362 22-822): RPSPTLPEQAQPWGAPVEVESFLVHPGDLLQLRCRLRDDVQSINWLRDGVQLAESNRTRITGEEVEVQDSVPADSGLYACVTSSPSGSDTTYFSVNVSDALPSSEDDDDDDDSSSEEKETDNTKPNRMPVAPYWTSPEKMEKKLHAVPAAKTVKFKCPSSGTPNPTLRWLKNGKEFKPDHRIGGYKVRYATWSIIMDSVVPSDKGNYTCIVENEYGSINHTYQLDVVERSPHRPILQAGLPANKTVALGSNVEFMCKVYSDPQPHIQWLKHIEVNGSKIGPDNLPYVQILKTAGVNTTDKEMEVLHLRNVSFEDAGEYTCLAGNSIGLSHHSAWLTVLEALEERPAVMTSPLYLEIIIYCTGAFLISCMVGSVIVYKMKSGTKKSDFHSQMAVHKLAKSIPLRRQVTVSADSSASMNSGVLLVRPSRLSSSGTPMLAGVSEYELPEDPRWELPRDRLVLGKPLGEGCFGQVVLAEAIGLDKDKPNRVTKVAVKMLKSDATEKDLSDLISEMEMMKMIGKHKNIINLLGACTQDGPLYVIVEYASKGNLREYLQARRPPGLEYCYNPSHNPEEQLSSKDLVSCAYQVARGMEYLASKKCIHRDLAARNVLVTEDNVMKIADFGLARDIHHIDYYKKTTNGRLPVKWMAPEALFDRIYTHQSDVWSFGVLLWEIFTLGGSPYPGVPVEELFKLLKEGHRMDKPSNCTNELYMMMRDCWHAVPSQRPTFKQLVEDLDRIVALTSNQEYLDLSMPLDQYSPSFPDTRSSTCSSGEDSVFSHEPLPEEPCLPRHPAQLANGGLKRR
Experimental: as §2, §1

GSK3B = GSK3B (Homo sapiens, UniProt P49841); experiment: Kinase selectivity, % remaining activity; format: biochemical; conditions: 10 μM compound, 10 μM ATP, duplicate; for remaining activity at 10 µM: read-out: % of remaining activity (relative to DMSO)
Sequence of GSK3B (P49841 whole entry): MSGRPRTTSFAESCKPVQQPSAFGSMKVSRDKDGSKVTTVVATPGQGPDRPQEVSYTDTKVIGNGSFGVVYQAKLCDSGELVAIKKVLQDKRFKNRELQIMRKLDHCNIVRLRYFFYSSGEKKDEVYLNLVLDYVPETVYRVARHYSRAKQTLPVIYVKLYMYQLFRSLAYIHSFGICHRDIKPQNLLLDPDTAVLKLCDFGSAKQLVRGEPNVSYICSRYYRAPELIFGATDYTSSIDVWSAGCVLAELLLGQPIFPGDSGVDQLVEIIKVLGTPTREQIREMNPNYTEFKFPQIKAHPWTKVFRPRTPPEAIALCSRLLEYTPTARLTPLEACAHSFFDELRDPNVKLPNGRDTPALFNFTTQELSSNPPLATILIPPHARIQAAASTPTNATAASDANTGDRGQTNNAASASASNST
Experimental: as §2, §1

JNK2 = JNK2 (Homo sapiens, UniProt P45984); experiment: Kinase selectivity, % remaining activity; format: biochemical; conditions: 10 μM compound, 10 μM ATP, duplicate; for remaining activity at 10 µM: read-out: % of remaining activity (relative to DMSO)
Experimental: as §2, §1

LCK = LCK (Homo sapiens, UniProt P06239); experiment: Kinase selectivity, % remaining activity; format: biochemical; conditions: 10 μM compound, 10 μM ATP, duplicate; for remaining activity at 10 µM: read-out: % of remaining activity (relative to DMSO)
Sequence of LCK (P06239 whole entry): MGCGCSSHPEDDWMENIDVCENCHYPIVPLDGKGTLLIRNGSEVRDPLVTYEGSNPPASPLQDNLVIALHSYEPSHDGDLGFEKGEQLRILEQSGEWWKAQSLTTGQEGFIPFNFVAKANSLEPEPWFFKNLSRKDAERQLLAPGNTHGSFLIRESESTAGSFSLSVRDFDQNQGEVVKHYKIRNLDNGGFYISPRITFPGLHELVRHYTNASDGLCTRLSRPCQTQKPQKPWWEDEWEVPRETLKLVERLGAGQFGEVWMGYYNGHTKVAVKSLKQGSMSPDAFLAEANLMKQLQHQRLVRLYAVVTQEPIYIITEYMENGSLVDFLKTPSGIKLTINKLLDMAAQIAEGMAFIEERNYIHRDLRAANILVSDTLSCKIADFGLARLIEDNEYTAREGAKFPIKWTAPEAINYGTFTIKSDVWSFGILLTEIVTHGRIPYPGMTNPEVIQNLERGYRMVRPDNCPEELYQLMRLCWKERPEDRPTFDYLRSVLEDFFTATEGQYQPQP
Experimental: as §2, §1

MSK1/RPS6KA5 = MSK1/RPS6KA5 (Homo sapiens, UniProt O75582); experiment: Kinase selectivity, % remaining activity; format: biochemical; conditions: 10 μM compound, 10 μM ATP, duplicate; for remaining activity at 10 µM: read-out: % of remaining activity (relative to DMSO)
Experimental: as §2, §1

P38a/MAPK14 = P38a/MAPK14 (Homo sapiens, UniProt Q16539); experiment: Kinase selectivity, % remaining activity; format: biochemical; conditions: 10 μM compound, 10 μM ATP, duplicate; for remaining activity at 10 µM: read-out: % of remaining activity (relative to DMSO)
Sequence of P38a/MAPK14 (Q16539 whole entry): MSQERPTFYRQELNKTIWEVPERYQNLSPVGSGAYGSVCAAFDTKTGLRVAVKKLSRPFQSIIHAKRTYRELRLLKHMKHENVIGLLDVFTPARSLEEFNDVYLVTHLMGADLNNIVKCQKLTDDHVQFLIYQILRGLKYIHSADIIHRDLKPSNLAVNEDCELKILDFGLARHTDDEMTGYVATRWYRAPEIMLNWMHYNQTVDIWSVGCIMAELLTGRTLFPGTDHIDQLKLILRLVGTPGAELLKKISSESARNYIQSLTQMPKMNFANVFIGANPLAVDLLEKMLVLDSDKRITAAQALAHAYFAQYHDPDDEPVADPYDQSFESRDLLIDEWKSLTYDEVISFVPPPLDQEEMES
Experimental: as §2, §1

PDK1/PDPK1 = molecular target: T1, PDK1/PDPK1 (Homo sapiens, UniProt O15530); experiment: Kinase selectivity, % remaining activity; format: biochemical; conditions: 10 μM compound, 10 μM ATP, duplicate; for remaining activity at 10 µM: read-out: % of remaining activity (relative to DMSO)
T1 sequence (O15530 1-556): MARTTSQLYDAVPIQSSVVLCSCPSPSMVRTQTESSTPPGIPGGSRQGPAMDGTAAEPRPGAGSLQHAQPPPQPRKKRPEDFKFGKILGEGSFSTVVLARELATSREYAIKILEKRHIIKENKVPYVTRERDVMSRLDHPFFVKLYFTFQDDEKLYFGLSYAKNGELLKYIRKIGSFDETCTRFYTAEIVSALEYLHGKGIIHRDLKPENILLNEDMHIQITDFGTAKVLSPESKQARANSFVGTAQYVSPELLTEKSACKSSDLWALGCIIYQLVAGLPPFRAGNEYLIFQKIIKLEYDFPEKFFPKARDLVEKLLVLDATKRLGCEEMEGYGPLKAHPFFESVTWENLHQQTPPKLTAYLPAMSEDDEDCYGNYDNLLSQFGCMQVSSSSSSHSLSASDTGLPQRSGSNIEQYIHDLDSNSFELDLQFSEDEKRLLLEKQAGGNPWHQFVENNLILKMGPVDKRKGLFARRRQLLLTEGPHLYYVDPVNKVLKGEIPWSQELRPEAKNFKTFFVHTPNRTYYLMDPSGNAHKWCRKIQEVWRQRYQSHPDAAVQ
Experimental: as §2, §1

PKA = PKA (Homo sapiens, UniProt P17612); experiment: Kinase selectivity, % remaining activity; format: biochemical; conditions: 10 μM compound, 10 μM ATP, duplicate; for remaining activity at 10 µM: read-out: % of remaining activity (relative to DMSO)
Experimental: as §2, §1

PKCb2 = PKCb2 (Homo sapiens, UniProt P05771); experiment: Kinase selectivity, % remaining activity; format: biochemical; conditions: 10 μM compound, 10 μM ATP, duplicate; for remaining activity at 10 µM: read-out: % of remaining activity (relative to DMSO)
Experimental: as §2, §1

RIPK2 = RIPK2 (Homo sapiens, UniProt O43353); experiment: Kinase selectivity, % remaining activity; format: biochemical; conditions: 10 μM compound, 10 μM ATP, duplicate; for remaining activity at 10 µM: read-out: % of remaining activity (relative to DMSO)
Sequence of RIPK2 (O43353 whole entry): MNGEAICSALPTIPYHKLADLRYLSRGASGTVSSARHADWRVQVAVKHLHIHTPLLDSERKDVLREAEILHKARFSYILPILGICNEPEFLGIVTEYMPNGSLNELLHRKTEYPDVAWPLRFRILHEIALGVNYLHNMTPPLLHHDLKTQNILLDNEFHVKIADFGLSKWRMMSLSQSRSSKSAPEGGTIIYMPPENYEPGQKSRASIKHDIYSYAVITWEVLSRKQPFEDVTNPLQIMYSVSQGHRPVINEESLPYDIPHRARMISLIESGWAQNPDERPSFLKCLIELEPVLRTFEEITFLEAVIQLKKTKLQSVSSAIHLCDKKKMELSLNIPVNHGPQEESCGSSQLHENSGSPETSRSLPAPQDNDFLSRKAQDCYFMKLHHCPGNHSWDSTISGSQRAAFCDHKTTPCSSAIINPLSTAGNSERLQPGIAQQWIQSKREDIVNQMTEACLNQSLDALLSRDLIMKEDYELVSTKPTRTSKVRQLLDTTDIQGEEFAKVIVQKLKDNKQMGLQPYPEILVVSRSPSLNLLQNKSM
Experimental: as §2, §1

YES/YES1 = YES/YES1 (Homo sapiens, UniProt P07947); experiment: Kinase selectivity, % remaining activity; format: biochemical; conditions: 10 μM compound, 10 μM ATP, duplicate; for remaining activity at 10 µM: read-out: % of remaining activity (relative to DMSO)
Experimental: as §2, §1

c-Src = c-Src (Homo sapiens, UniProt P12931); experiment: Kinase selectivity, % remaining activity; format: biochemical; conditions: 10 μM compound, 10 μM ATP, duplicate, read-out: % of remaining activity (relative to DMSO)
Experimental: as §2, §1

| SMILES | Escape latency (time to reach the target), Mean ± SEM, Day 1 [1] [s] | Path length to reach the target, Mean ± SEM, Day 1 [1] [meter] | Escape latency (time to reach the target), Mean ± SEM, Day 2 [1] [s] | Path length to reach the target, Mean ± SEM, Day 2 [1] [meter] | Escape latency (time to reach the target), Mean ± SEM, Day 3 [1] [s] | Path length to reach the target, Mean ± SEM, Day 3 [1] [meter] | Escape latency (time to reach the target), Mean ± SEM, Day 4 [1] [s] | Path length to reach the target, Mean ± SEM, Day 4 [1] [meter] | remaining activity at 10 µM (CK1e) [%] | remaining activity at 10 µM (CK1g1) [%] | remaining activity at 10 µM (CK1g3) [%] | remaining activity at 10 µM (EPHA2) [%] | remaining activity at 10 µM (FGFR1) [%] | remaining activity at 10 µM (GSK3B) [%] | remaining activity at 10 µM (JNK2) [%] | remaining activity at 10 µM (LCK) [%] | remaining activity at 10 µM (MSK1/RPS6KA5) [%] | remaining activity at 10 µM (P38a/MAPK14) [%] | remaining activity at 10 µM (PDK1/PDPK1) [%] | remaining activity at 10 µM (PKA) [%] | other results |
| --- | --- | --- | --- | --- | --- | --- | --- | --- | --- | --- | --- | --- | --- | --- | --- | --- | --- | --- | --- | --- | --- |
| Nc1ncnc2c1c(COc1cccc(Cl)c1)nn2C1CCOCC1 [PF4800567, 3-[(3-Chlorophenoxy)methyl]-1-(tetrahydro-2H-pyran-4-yl)-1H-pyrazolo[3,4-d]pyrimidin-4-amine] | 51.1 ± 3.10 | 8.00 ± 0.54 | 50.0 ± 3.49 | 7.51 ± 0.56 | 43.6 ± 3.86 | 5.83 ± 0.61 | 44.0 ± 3.72 | 5.70 ± 0.58 | 3 | 85.1 | 88.9 | 39 | 80.8 | 114 | 96.5 | 19.9 | 104 | 71.2 | 103 | 83 | remaining activity at 10 µM (CK1a1; read-out: % of remaining activity (relative to DMSO), CK1a1): 29.3%; remaining activity at 10 µM (PKCb2): 88.5%; remaining activity at 10 µM (RIPK2): 47.6%; remaining activity at 10 µM (YES/YES1): 15.5%; remaining activity at 10 µM (c-Src): 44% |
| Nc1ncc(-c2nc3ccccc3o2)c(-c2ccncc2)n1 [Comparative Compound 324, 5-(1,3-benzoxazol-2-yl)-4-(pyridine-4-yl)pyrimidin-2-amine] | 54.9 ± 2.66 | 8.81 ± 0.55 | 46.6 ± 3.82 | 6.77 ± 0.64 | 39.8 ± 3.95 | 5.25 ± 0.58 | 36.9 ± 3.87 | 5.17 ± 0.62 | 28.2 | 99 | 69.9 | 98.7 | 104 | 91.3 | 95.1 | 102 | 81.1 | 53.9 | 105 | 90.8 | % of remaining activity (relative to DMSO) (CK1a1; CK1a1, listed as Cmp 324): 58.48%; remaining activity at 10 µM (CK1a1; CK1a1, read-out: % of remaining activity (relative to DMSO)): 65.7%; % of remaining activity (relative to DMSO) (CK1e; listed as Cmp 324): 24.86%; % of remaining activity (relative to DMSO) (CK1g1; listed as Cmp 324): 92.69%; % of remaining activity (relative to DMSO) (CK1g3; listed as Cmp 324): 62.63%; % of remaining activity (relative to DMSO) (EPHA2; listed as Cmp 324): 105.62%; % of remaining activity (relative to DMSO) (FGFR1; listed as Cmp 324): 108.45%; % of remaining activity (relative to DMSO) (GSK3B; listed as Cmp 324): 80.19%; % of remaining activity (relative to DMSO) (JNK2; listed as Cmp 324): 91.75%; % of remaining activity (relative to DMSO) (LCK; listed as Cmp 324): 95.46%; % of remaining activity (relative to DMSO) (MSK1/RPS6KA5; listed as Cmp 324): 94.78%; % of remaining activity (relative to DMSO) (P38a/MAPK14; listed as Cmp 324): 48.46%; % of remaining activity (relative to DMSO) (PDK1/PDPK1; listed as Cmp 324): 104.88%; % of remaining activity (relative to DMSO) (PKA; listed as Cmp 324): 90.27%; % of remaining activity (relative to DMSO) (PKCb2; listed as Cmp 324): 103.51%; remaining activity at 10 µM (PKCb2): 101%; % of remaining activity (relative to DMSO) (RIPK2; listed as Cmp 324): 92.78%; remaining activity at 10 µM (RIPK2): 92.2%; % of remaining activity (relative to DMSO) (YES/YES1; listed as Cmp 324): 95.22%; remaining activity at 10 µM (YES/YES1): 108% |

From patent US10815230B2, “Casein kinase 1 delta inhibitor” (ELECTROPHORETICS LIMITED, priority 2015, dated 2020)
